For assay [1], the target named is HPK1 kinase (aa1-346, Life Technologies) (Homo sapiens (Human), UniProt Q92918). Kind of assay: HPK Kinase Activity Assay at 1 mM ATP (TR-FRET). The format is biochemical. The settings on record: HPK1 kinase 40 nM, 0.5 μM STK1 substrate, read-out: Enzymatic activity IC50. On the technique in general: In TR-FRET formats the signal depends on donor and acceptor labels being close together.

In assay [2] the test system is pSLP76(S376) level in Jurkat cell line. Kind of assay: Cellular pSLP76(S376) HTRF Assay. The format is cell-based. The settings on record: Homo sapiens, Jurkat cells, 2 h compound treatment, 0.05 μg/mL anti-human CD3 (OKT3) 30 min.

By IC50 is commonly meant the concentration at which inhibition is half-maximal.

HPK1 kinase (aa1-346, Life Technologies), sequence (Q92918 1-346): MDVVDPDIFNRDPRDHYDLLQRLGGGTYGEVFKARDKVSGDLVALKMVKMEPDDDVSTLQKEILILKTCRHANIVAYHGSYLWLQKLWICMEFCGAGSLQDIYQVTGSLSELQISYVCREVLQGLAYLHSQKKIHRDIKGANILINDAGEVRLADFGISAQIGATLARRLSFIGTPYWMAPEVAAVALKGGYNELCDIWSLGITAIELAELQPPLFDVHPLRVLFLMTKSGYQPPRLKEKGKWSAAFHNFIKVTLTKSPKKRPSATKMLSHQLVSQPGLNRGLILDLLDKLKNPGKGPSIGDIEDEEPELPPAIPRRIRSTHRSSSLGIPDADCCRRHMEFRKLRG

As to `C[C@@H]1COCCN1c1cc(-c2cnc(N)c(Oc3cnn(C4CCN(C)CC4)c3)n2)cc([C@]2(O)CCO[C@H]2C)c1` (single isomer, unassigned) [Example A95B], the IC50 turned out to be 4.5 nM in assay [1] and 68 nM in assay [2].
Turning to `C[C@@H]1COCCN1c1cc(-c2cnc(N)c(Oc3cnn(C4CCN(C)CC4)c3)n2)cc([C@@]2(O)CCO[C@@H]2C)c1` (single isomer, unassigned) [Example A95A], the IC50 in assay [1] is 44 nM.

(Values after US20250236610A1, “3-[(1H-PYRAZOL-4-YL)OXY]PYRAZIN-2-AMINE COMPOUNDS AS HPK1 INHIBITOR AND USE THEREOF” (BeiGene, Ltd., priority 2020, published 2025).)
